One block for each molecule: values may come before it.
Legend:
Format in all cases: physicochemical
[1] = Carbon nanotube solubilizing capability of saccharide aqueous solutions (absorbance of supernatant at 500 nm); settings: for amount of the solubilized carbon nanotube (in words): at the investigated concentrations of Table 1; for A500: about 4 mg SWCNT-1 per 1 mL, ultra sound 5 min
Experimental: (§1) The amount of the carbon nanotube dissolved in the solution can be measured, for example, by recovering the carbon nanotube by centrifugation at 70,000×g for 15 minutes and measuring the weight thereof. Alternatively, as described in the literature “Chem. Commun.”, P. 193 (2001), the concentration of the carbon nanotube has quite a high correlation with the absorbance at 500 nm, and the water-soluble xylan has almost no absorption at the wavelength. Thus, the concentration of the carbon nanotube is easily determined by measuring the absorbance of the solution at 500 nm, unless the solution contains any other substances having absorption at around 500 nm. In the case where a hardly soluble or insoluble substance is used as another substance, the method for measuring the concentration of the substance in the solution can be appropriately selected in depending on the substance.
A solubilizing capability of the water-soluble xylan was compared with those of other saccharides. As the water-soluble xylan, glucuronoxylan (manufactured by Institute of Chemistry, Slovak Academy of Sciences; the number average molecular weight: 18,000; xylose residue: 4-O-methyl-D-glucuronic acid reside=10:1; no acetylation) was used. For comparison, various saccharide solutions of amylose (the number average molecular weight of 2,900), pectin (derived from citrus fruit), polygalacturonic acid, methylcellulose, fucoidan, xanthan gum, carboxymethyl cellulose, an Abelmoschus manihot extraction liquid, a Hydrangea paniculata extraction liquid, gum arabic, β-1,3-glucan (schizophyllan, curdlan), and xylo-oligosaccarides (polymerization degrees of 2 and 5) were used.
To 1 mL of each of the saccharide aqueous solutions, about 4 mg of the single layer carbon nanotube powder (SWCNT-1 manufactured by Shenzhen Nanotech Port Co., Ltd.) was added and then stirred for about 10 seconds with a Vortex mixer. The mixture was applied ultra sound with a bath type sonicator (UT-205 manufactured by Sharp Corporation) at a room temperature (15° C. to 20° C.) for 5 minutes to dissolve the carbon nanotube. The obtained solution was centrifuged at 2,200×g for 10 minutes, and then the supernatant thereof was collected. The amount of the dissolved carbon nanotube was estimated by measuring the absorbance of the supernatant at 500 nm. The saccharides vary from one another in solubility to water.
Within the same concentration range, the absorbances at 500 nm of the solutions containing another saccharide were 3 or less.

[2] = Preparation of carbon nanotube solution with water-soluble xylan: absorbance at 500 nm and dissolved carbon nanotube
Experimental: as §1
As water-soluble xylan, glucuronoxylan (manufactured by Institute of Chemistry, Slovak Academy of Sciences; the number average molecular weight: 18,000; xylose residue: 4-O-methyl-D-glucuronic acid reside=10:1; no acetylation; derived from beech) was used. To 1 L of a 0.4 mg/mL glucuronoxylan aqueous solution, 2 g of a single-layer carbon nanotube powder (SWCNT-1 manufactured by Shenzhen Nanotech Port Co., Ltd.) was added, and then stirred with a magnetic stirrer. The mixture was sequentially applied ultra sound by an ultra sound dispersing machine (Model UH-600SR, HO-F36 flanged chip, RD-36 continuous holder; manufactured by SMT Co., Ltd.) at a room temperature (15° C. to 20° C.) for 130 minutes at a flow rate of 1 L/min to dissolve and disperse the carbon nanotube. The obtained solution was centrifuged at 2,200×g for 15 minutes, and then collected the supernatant. The supernatant was a blackish solution.
The obtained solution was centrifuged at 70,000×g for 10 minutes to collect the carbon nanotube as a precipitate. To the obtained precipitate, 50 mL of the aforementioned glucuronoxylan aqueous solution was added, and the carbon nanotube was dispersed by applying an ultra sound at a room temperature (15° C. to 20° C.) for 5 minutes with a bath type sonicator (Branson 1200).
To 10 L of the water-soluble xylan solution prepared by Preparative Example 1, 5 g of a single-layer carbon nanotube powder (SWCNT-1 manufactured by Shenzhen Nanotech Port Co., Ltd.) was added and then stirred. The mixture was sequentially applied ultra sound by an ultra sound dispersing machine (Model UH-600SR, HO-F36 flanged chip, RD-36 continuous holder; manufactured by SMT Co., Ltd.) at a room temperature (15° C. to 20° C.) for 90 minutes at a flow rate of 1 L/min to dissolve and disperse the carbon nanotube. The obtained solution was centrifuged at 2,200×g for 15 minutes, and then the supernatant was collected. […]

[3] = Carbon nanotube solubilizing capability of saccharide aqueous solutions (absorbance of supernatant at 500 nm); settings: Example 2-2, FIG. 4; concentration dependency
[4] = saccharide 5 mg/mL (5.00), supernatant
[5] = saccharide 10.00 mg/mL, supernatant
[6] = saccharide 1.00 mg/mL, supernatant
[7] = saccharide 2.50 mg/mL, supernatant
[8] = saccharide 2.00 mg/mL, supernatant
[9] = saccharide 0.40 mg/mL, supernatant after 2,200xg 10 min
[10] = Example 1-1: 0.4 mg/mL glucuronoxylan, 2 g SWCNT-1 per 1 L, ultra sound 130 min, supernatant after 2,200xg 15 min
[11] = Example 1-1: 70,000xg precipitate re-dispersed in 50 mL glucuronoxylan solution, ultra sound 5 min

Molecule: OC1OC[C@@H](O[C@@H]2OC[C@@H](O[C@@H]3OC[C@@H](O[C@@H]4OC[C@@H](O[C@@H]5OC[C@@H](O)[C@H](O)[C@H]5O)[C@H](O)[C@H]4O)[C@H](O)[C@H]3O)[C@H](O)[C@H]2O)[C@H](O)[C@H]1O (stereo partly drawn)
- amount of the solubilized carbon nanotube (in words) [1]: did not exhibit solubilization of carbon nanotube at all
- A500 [1, 4]: 0.00

Molecule: amylose
- A500 [1, 4]: 0.02
- A500 [1, 5]: 0.06

Molecule: gum arabic
- amount of the solubilized carbon nanotube (in words) [1]: close to that when using the water-soluble xylan
- A500 [1, 6]: 0.73
- A500 [1, 5]: 4.30

Molecule: fucoidan
- amount of the solubilized carbon nanotube (in words) [1]: close to that when using the water-soluble xylan
- A500 [1, 7]: 1.33
- A500 [1, 5]: 6.80

Molecule: xanthan gum
- amount of the solubilized carbon nanotube (in words) [1]: close to that when using the water-soluble xylan
- A500 [1, 6]: 2.79
- A500 [1, 8]: 6.91

Molecule: pectin
- amount of the solubilized carbon nanotube (in words) [1]: close to that when using the water-soluble xylan
- A500 [1, 7]: 3.48
- A500 [1, 5]: 6.28

The next lines start with results.

- A500 ([1]; saccharide 16 mg/mL, supernatant): 0.00
Molecule: OC1OC[C@@H](O[C@@H]2OC[C@@H](O)[C@H](O)[C@H]2O)[C@H](O)[C@H]1O (stereo partly drawn)
- amount of the solubilized carbon nanotube (in words) [1]: did not exhibit solubilization of carbon nanotube at all

- A500 ([1]; saccharide 1.90 mg/mL, supernatant): 2.18
- A500 ([1]; saccharide 2.70 mg/mL, supernatant): 5.26
Molecule: polygalacturonic acid
- amount of the solubilized carbon nanotube (in words) [1]: close to that when using the water-soluble xylan

- A500 [1, 7]: 5.64
- A500 [1, 5]: 2.37
Molecule: carboxymethyl cellulose [Carboxy Methylcellulose]
- amount of the solubilized carbon nanotube (in words) [1]: close to that when using the water-soluble xylan

- A500 [1, 9]: 0.02
Molecule: curdlan

- A500 [1, 6]: 0.16
- A500 [1, 8]: 0.80
Molecule: methylcellulose

- A500 ([1]; saccharide 0.20 mg/mL, supernatant): 0.12
- A500 [1, 9]: 0.95
Molecule: schizophyllan

- amount of the solubilized carbon nanotube (in words) [1]: largest
- A500 [1, 9]: 10.70
- absorbance at 500 nm [2, 10]: 7.57
- carbon nanotube contained in solution [2, 10]: about 282 μg/mL
- absorbance at 500 nm [2, 11]: 122
- carbon nanotube contained in solution [2, 11]: about 4.5 mg/mL
- saccharide concentration showing the maximum absorbance at 500 nm [3]: 0.2 mg/mL
Molecule: glucuronoxylan [Water-soluble Xylan]

Reference: patent US9315678B2, “Affinity of hardly soluble or insoluble substance solvent by water-soluble xylan” (Ezaki Glico Co., Ltd., priority 2006, dated 2016)
